Experimental data published in publication PMC10099810, “Rational Design and Synthesis of D‐galactosyl Lysophospholipids as Selective Substrates and non‐ATP‐competitive Inhibitors of Phosphatidylinositol Phosphate Kinases” (Chemistry (Weinheim an Der Bergstrasse, Germany), 2022).

Assays:
[1] = biological target: T1, zPIP5Kα (zebrafish PIP5Kα) (Danio rerio, UniProt Q503I3); test: […]-ATP lipid kinase assay with TLC, diC16-PI4P substrate; ATP and PI4P competition; type: biochemical
T1 construct: gene pip5k1aa; zebrafish PIP5Kα with a C-terminal His-tag

[2] = biological target: T2, 5′ AMP-activated protein kinase α1 (AMPKα1) (Homo sapiens, UniProt Q13131); test: KinaseProfiler activity screen, […] inhibition at […]; type: biochemical
T2 construct: gene PRKAA1
T2 sequence (Q13131 whole entry): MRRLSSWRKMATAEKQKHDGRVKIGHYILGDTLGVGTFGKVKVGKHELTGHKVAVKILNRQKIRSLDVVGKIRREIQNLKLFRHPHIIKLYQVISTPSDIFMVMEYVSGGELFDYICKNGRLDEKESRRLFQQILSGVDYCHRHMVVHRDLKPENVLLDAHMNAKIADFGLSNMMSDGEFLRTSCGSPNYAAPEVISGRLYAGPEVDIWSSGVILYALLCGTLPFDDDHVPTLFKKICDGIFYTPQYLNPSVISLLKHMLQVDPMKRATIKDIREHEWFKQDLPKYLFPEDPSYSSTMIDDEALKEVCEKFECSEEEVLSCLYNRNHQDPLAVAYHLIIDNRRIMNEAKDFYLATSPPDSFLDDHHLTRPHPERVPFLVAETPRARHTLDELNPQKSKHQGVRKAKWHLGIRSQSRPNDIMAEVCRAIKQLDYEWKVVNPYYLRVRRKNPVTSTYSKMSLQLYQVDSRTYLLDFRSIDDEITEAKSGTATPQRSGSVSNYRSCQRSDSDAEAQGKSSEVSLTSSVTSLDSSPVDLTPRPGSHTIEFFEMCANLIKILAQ
T2 sequence (Q9Y478 2-270 partner): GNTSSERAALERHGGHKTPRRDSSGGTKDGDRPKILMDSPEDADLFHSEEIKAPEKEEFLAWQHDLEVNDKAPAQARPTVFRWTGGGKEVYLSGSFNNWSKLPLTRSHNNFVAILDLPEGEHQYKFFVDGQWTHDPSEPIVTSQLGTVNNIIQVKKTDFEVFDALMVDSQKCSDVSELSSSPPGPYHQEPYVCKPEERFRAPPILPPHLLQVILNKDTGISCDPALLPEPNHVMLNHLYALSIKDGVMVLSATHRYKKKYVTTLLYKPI
T2 sequence (P54619 whole entry partner): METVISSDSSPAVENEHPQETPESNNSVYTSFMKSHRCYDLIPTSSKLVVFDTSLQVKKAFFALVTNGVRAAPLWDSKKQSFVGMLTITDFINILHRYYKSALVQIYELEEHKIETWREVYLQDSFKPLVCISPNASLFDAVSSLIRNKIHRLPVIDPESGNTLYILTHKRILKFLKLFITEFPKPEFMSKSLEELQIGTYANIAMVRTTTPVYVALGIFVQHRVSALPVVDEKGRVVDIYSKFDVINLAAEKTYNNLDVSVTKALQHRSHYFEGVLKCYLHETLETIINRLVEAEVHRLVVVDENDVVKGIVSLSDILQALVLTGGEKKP

hPIKfyve (human PIKfyve) = biological target: T3, hPIKfyve (human PIKfyve) (Homo sapiens, UniProt Q9Y2I7); test: […]-ATP lipid kinase assay with TLC, diC16-PI3P substrate; type: biochemical
T3 construct: full length human PIKfyve with an N-terminal FLAG tag
T3 sequence (Q9Y2I7 2-2098): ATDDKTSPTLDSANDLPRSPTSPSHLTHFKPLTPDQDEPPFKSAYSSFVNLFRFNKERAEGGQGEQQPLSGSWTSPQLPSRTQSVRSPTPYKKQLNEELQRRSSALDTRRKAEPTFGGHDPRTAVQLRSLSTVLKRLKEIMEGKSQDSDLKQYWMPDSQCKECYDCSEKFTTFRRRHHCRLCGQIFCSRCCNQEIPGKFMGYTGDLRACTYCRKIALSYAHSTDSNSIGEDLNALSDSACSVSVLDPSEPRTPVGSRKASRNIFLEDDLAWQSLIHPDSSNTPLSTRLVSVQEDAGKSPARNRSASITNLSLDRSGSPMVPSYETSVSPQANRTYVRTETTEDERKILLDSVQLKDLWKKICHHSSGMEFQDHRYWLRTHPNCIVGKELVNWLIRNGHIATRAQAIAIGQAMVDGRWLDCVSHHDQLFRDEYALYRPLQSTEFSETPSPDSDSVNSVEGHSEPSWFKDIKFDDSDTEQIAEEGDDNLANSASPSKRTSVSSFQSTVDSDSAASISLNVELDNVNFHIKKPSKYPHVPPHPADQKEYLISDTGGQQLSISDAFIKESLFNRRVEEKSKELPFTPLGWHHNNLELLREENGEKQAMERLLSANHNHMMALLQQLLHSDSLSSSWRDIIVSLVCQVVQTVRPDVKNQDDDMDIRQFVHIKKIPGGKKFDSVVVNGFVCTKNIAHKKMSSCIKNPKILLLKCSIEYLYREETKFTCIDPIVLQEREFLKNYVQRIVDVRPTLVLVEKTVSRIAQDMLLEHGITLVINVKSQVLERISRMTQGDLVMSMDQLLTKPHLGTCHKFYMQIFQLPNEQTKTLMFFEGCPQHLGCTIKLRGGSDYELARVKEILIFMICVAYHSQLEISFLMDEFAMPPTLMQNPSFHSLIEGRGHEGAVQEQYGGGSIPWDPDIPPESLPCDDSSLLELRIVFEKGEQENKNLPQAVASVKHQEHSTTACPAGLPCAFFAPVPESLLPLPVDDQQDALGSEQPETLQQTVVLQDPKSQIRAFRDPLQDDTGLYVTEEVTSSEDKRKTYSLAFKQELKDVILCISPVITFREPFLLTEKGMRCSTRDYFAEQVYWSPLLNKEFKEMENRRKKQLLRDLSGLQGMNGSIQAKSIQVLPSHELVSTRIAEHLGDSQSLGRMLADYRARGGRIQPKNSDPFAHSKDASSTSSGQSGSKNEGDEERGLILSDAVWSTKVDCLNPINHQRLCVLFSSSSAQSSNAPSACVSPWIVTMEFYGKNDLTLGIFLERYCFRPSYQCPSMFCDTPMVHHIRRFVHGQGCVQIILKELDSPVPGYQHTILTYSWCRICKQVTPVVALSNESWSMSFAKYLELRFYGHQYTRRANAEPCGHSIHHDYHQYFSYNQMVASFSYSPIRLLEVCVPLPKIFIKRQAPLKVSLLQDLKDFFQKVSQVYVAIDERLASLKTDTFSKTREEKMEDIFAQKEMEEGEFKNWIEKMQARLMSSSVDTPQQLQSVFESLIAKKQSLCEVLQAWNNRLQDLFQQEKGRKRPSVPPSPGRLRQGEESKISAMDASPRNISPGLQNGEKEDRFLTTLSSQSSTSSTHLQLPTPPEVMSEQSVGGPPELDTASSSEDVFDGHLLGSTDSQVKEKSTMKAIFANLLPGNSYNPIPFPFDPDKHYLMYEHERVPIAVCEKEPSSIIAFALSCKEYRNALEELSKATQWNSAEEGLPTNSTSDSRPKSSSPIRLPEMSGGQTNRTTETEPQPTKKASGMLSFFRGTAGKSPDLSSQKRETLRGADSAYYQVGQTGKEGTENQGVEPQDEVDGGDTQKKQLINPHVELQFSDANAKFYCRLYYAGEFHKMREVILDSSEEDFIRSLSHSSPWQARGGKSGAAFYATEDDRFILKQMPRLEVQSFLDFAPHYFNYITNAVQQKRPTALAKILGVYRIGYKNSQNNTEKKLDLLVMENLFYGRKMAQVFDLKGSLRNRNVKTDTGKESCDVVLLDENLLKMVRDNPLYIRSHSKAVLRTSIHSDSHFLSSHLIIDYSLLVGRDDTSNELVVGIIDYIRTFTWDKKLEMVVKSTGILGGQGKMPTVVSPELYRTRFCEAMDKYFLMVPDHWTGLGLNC

purified protein = substrate: CCCCCCCCCCCCCCCC(=O)NCCOP(=O)(O)OC[C@H]1OC(O)[C@H](OP(=O)(O)O)[C@@H](O)[C@H]1O; test: purified protein; type: biochemical, Danio rerio; conditions: Mg2+, phosphorylated at the anomeric OH

IC50 [1]	inhibition at 20 µM [2]	IC50 (hPIKfyve (human PIKfyve))	Molecule	Km (purified protein)
~15 µM	50%	6.2 µM	CCCCCCCCCCCCCCCC(=O)NCCOP(=O)(O)OC[C@H]1O[C@@H](OC)[C@H](OP(=O)(O)O)[C@H]2OC(C)(C)O[C@H]21 [compound 6]	–
–	–	–	zPIP5Kα (zebrafish PIP5Kα) (Danio rerio) (protein, zebrafish PIP5Kα with a C-terminal His-tag) MAAPAVVSTDGADSSTPGNRKMASSEGLSTLGSSQTNKKTLGHRGIDPTGETTYKKTTSSALKGAIQLGITHSVGSLSQKPERDVLMQDFEVVESIFFPSQGSSSTPGHHHGDFKFKTYAPIAFRYFREMFGIRPDDYLYSLCNEPLIELSNPGASGSLFYVSSDDEFIIKTVQHKEAEFLQTLLPGYFMNLNQNMRTLLPKFYGLYCVQADGKNIRIVVMNNLLPRAVPMHLKFDLKGSTYKRRASPKERSKGVPTYKDLDFMQDMPEGILLENDHYTALSRTMQRDCRVLQSFKIMDYSLLVGIHILHRAGEEASTAVPDTQKKGQGQKPLYCTAIESIQGESKSKTSPQPYESMGGIPAFNSKGERLLVFIGIIDILQSYRLVKKLEHSWKALLHDGDTVSVHRPSFYADRFQKFMCSTVFRKSQLKTSPSKRSRLGPVSAGKKSNIAVSGQSHQQSLPVAAELTQSQLWSSEDPQGDSGMQTARPDLLPQQVAEDDITSSSADTTLSATSLVNSRLSTNTPVLSRSSVAGHSSEESLDMDVISLSEIVPQTSTSE	10 ± 1.3 µM
